US12256764B2 (priority 2017, dated 2025)

Tested on: rats
Assay: Acute oral toxicity (LD50) in rats
Settings: conversion of the MSDS LD50

OCC(O)CO [Vegetable glycerin, glycerol]
LD50 oral rat dosage expressed for a 180 pound male: 36 ounces
